Series [1] deals with T1, human amylin receptor (amylin 3(a) receptor: human calcitonin receptor + RAMP-3) (Homo sapiens, UniProt O60896+P30988).
T1 construct: expressed in transfected cells; host or cells: BHK570
T1 sequence (P30988 25-474): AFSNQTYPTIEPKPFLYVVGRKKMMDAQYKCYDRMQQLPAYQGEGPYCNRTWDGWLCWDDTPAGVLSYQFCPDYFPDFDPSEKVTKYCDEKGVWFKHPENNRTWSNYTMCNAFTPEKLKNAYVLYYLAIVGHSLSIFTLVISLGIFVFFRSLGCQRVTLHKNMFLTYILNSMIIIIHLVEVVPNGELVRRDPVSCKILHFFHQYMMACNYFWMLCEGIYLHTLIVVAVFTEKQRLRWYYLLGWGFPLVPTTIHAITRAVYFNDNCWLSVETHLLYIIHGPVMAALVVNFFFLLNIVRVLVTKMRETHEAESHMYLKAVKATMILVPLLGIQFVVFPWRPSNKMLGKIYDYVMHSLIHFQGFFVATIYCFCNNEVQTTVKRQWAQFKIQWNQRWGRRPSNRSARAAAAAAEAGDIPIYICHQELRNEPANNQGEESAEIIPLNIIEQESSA
T1 sequence (O60896 24-148 partner): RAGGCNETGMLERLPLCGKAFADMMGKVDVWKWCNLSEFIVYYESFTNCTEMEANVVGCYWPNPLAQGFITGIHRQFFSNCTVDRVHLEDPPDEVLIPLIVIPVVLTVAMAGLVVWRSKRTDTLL
Nature of the series: Assay (II)a functional CRE-luciferase assay, human amylin receptor. The format is cell-based. Conditions: Table 2; BHK amylin 3(a)-receptor/CRE-luc cells.

Series [2] concerns the target T2, human calcitonin receptor (Homo sapiens, UniProt P30988).
T2 construct: expressed in transfected cells; host or cells: BHK570
T2 sequence (P30988 25-474): T1 sequence (P30988 25-474)
Nature of the series: Assay (II)a functional CRE-luciferase assay, human calcitonin receptor. The format is cell-based. Conditions: Table 7; human calcitonin (CTa) receptor.

Series [3] is described as follows: Assay (III) ThT fibrillation assay for physical stability. The format is physicochemical. The conditions noted are these: ThT fibrillation assay. The essentials: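 Freshly prepared formulations, pH-adjusted, with 1 μM ThT; four or eight replicates incubated at 37 °C under 960 rpm orbital shaking. Fluorescence (ex 444/em 485 nm) read every 20 min; […]. Peptide concentration measured by RP-HPLC before and after the run.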

A short description of series [4]: Assay (IV) determination of solubility. The format is physicochemical. Summed up: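 Eight 100 mM buffers (glycylglycine pH 3.0–5.0, bistrispropane pH 6.0–8.0) each received an equal volume of polypeptide dissolved in water at ~500 nmol/ml. Soluble polypeptide was measured by HPLC following 18 hours at room temperature and centrifugation.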

Converted amounts (≈) assume the structure as drawn. Read-outs that look alike come from different tables or passages of the source. Starred links: 1 amine or outer side, 2 acyl side, 3 side chain; linkers in the order of their positions; H or OH if unused. Positions of bridges follow the written chain, without caps; N, C: chain ends. Residues, ends and D or L forms follow the SMILES beside them. Groups on a side chain read outwards from the residue. *: point of attachment. C18 diacid = O=C(O)CCCCCCCCCCCCCCCCC(=O)*; γGlu = O=C(O)[C@H](CCC(=O)[*:2])N[*:1] Bounds are passed on as bounds.

A word on the EC50: it is the concentration that produces a half-maximal response. As a reminder, the solubility is the dissolved amount per volume that the medium holds. For `CC[C@H](C)[C@H](NC(=O)[C@@H]1CCCN1C(=O)CNC(=O)[C@H](Cc1ccccc1)NC(=O)[C@H](CC(N)=O)NC(=O)[C@H](CC(N)=O)NC(=O)[C@H](CO)NC(=O)[C@H](CO)NC(=O)[C@H](Cc1c[nH]cn1)NC(=O)[C@H](Cc1c[nH]cn1)NC(=O)[C@H](CC(C)C)NC(=O)[C@H](Cc1ccccc1)NC(=O)[C@H](CCC(=O)O)NC(=O)[C@H](C)NC(=O)[C@H](CC(C)C)NC(=O)[C@H](CCCNC(=N)N)NC(=O)[C@H](CCC(N)=O)NC(=O)[C@@H](NC(=O)[C@H](C)NC(=O)[C@@H]1CSSC[C@H](NC(=O)[C@@H](N)CCCCNC(=O)CC[C@H](NC(=O)CCCCCCCCCCCCCCCCC(=O)O)C(=O)O)C(=O)N[C@@H](CC(N)=O)C(=O)N[C@@H]([C@@H](C)O)C(=O)N[C@@H](C)C(=O)N[C@@H]([C@@H](C)O)C(=O)N1)[C@@H](C)O)C(=O)N[C@@H](CC(C)C)C(=O)N1CCC[C@H]1C(=O)N1CCC[C@H]1C(=O)N[C@H](C(=O)N[C@@H](CC(N)=O)C(=O)N[C@H](C(=O)NCC(=O)N[C@@H](CO)C(=O)N[C@@H](Cc1c[nH]cn1)C(=O)N[C@H](C(=O)N[C@@H](Cc1ccc(O)cc1)C(N)=O)[C@@H](C)O)C(C)C)[C@@H](C)O` [Example 94, N-epsilon1-[(S)-4-Carboxy-4-(17-carboxyheptadecanoylamino)butyryl]-[Glu14,His17,His35]-pramlintide] (H-K([γGlu-C18 diacid])CNTATCATQRLAEFLHHSSNNFGPILPPTNVGSHTY-NH2; disulfide 2-7 (inferred); N-terminus assumed), the EC50 came out at 0.119 nM in series [1] and 0.286 nM in series [2]. Moreover, in series [3], the “ThT pH 4.0 lag time (h)” value is recorded as 11.3 h. The solubility at 18 h was above 200 µM in series [4] (bistrispropane buffer, pH 6, pH 6.0, read-out: Solubility pH 6.0); above 200 µM in series [4] (bistrispropane buffer, pH 6.5, pH 6.5, read-out: Solubility pH 6.5); 138 µM (≈ 614 µg/mL) in series [4] (bistrispropane buffer, pH 7, pH 7.0, 18 hours at room temperature, Table 3, read-out: Solubility pH 7.0); 138 µM (≈ 614 µg/mL) in series [4] (bistrispropane buffer, pH 7, pH 7.0, read-out: Solubility pH 7.0); above 200 µM in series [4] (bistrispropane buffer, pH 7.5, pH 7.5, read-out: Solubility pH 7.5); above 200 µM in series [4] (bistrispropane buffer, pH 8, pH 8.0, read-out: Solubility pH 8.0). Moreover, the solubility at 18 h in series [4] (glycylglycine buffer, pH 3, pH 3.0, read-out: Solubility pH 3.0) is above 200 µM; in series [4] (glycylglycine buffer, pH 4, pH 4.0, 18 hours at room temperature, Table 2, read-out: Solubility pH 4.0), above 200 µM; in series [4] (glycylglycine buffer, pH 4, pH 4.0, read-out: Solubility pH 4.0), above 200 µM; in series [4] (glycylglycine buffer, pH 5, pH 5.0, read-out: Solubility pH 5.0) it was above 200 µM.
